Experiments:
[1] = system: splenic T cells; assay: Mitogenesis of spleen T cells (ConA, 3H-thymidine) from LP-BM5-infected mice given SP aerosol; assay type: in vivo, C57BL6 mice
Description: C57BL6 mice, average weight of 25-30 grams, were infected with the LP-BM5 murine leukemia retrovirus to simulate the human AIDS virus. […] The mice were divided into two groups; LP-BM5 virus only and LP-BM5 virus +substance P aerosol therapy at 1 μM concentration. The mice were killed at 4 and 8 weeks post-inoculation.
The proliferation of splenic B and T cells induced by mitogens was determined by incorporation of radioactive thymidine. Splenocytes in 0.1 ml of cell culture medium (1×10^7 cells/ml) were cultured in 96-well flat-bottom cultured plates with ConA and lipopolysaccharide, 5 micrograms/ml). […] After 4 hours for radioactive thymidine uptake, the cells were harvested by a cell sample harvester. Radioactivity was determined by a liquid scintillation counter (Tri-Carb, 2200CA). The T and B cell mitogenesis values were recorded as counts per min in 1×10^7 cells/ml.

[2] = system: immune system; assay: Immune parameters and immune function (blastogenesis, mixed lymphocyte response) after JP-8 exposure; assay type: in vivo, C57B16 mice
Description: (§1) At 24 hours after the last exposure, the animals were sacrificed and the effects of exposure on the immune system examined. Immune organs (spleen, thymus, blood, lymph nodes and bone marrow) were recovered and analyzed for effects on organ weight, total cell numbers, immune cell populations (by differentials), and lymphocyte subpopulations (by flow cytometry). Assays were also performed to examine the effects of exposure on immune function. […] Similar effects on immune cell subpopulations were also observed in lymph nodes. In the thymus it appeared that the immature CD4^+ CD8^+ cells were differentially lost due to exposure. […] However, these effects are prevented or ameliorated by treatment of the animals with Substance P.
Blastogenesis and Mixed lymphocyte response (MLR) assays: Blastogenesis and MLR assays are set up in 96 well microtitre plated in replicates of 6. Responder cells are plated at 1×10^5 cells/well and are stimulated as indicated (with either media, alloantigen, growth factors or mitogens). After 72 hours the plates are pulsed with 1 uCi/well of ^3 H-thymidine for 18 hours. The wells are then harvested using a Ph.D. cell harvester, the filters dried and scintillation counting performed. The data is presented as the stimulated dpm and is represented as the stimulation index (SI) (Harris et al., Proc. Natl. Acad Sci. USA 89:10006 (1992)).

[3] = system: lymphocyte subpopulations; assay: Flow cytometric analyses (FACS) of immune organs, JP-8 exposed mice; assay type: in vivo, C57B16 mice
Description: as §1
Flow cytometric analyses (FACS): One- and two-color FACS analyses are performed using a Becton-Dickinson FACStar Plus flow cytometer. Cells are stained with the indicated monoclonal antibodies according to standard procedures (Harris et al., id). Cells alone and cells reacted with conjugated isotype control, irrelevant mAbs are used as controls. Data is presented as the percentage of cells staining positive for each individual mAb.

[4] = system: melanoma B16 cancer cells; assay: B16 melanoma massive challenge, survival; assay type: in vivo, mice; details: tumor-challenged mammals, aerosol therapy
Excerpt: The mice were infected with 1×10^5 […] melanoma B16 cancer cells by tail vein injection.

[5] = LP-BM5 virus + SP aerosol 1 μM, 4 weeks after infection, mean (SEM)
[6] = JP-8 dose 0 + SP or antagonist aerosol
[7] = JP-8 dose 1000 + SP or antagonist aerosol
[8] = JP-8 dose 1000 + nSP (1 nanomolar substance P)

Substance P [SP]
Spleen T Cell Mitogenesis, 24 Hours in Culture ([1]; LP-BM5 virus + SP aerosol 1 μM 3 days/week, 4 weeks after infection, mean (SEM)): 2963 (56) counts per min | Spleen T Cell Mitogenesis, 48 Hours in Culture [1, 5]: 2769 (23) counts per min | Spleen T Cell Mitogenesis, 72 hours in culture [1, 5]: 4362 (69) counts per min | Spleen T Cell Mitogenesis, 72 hours in culture ([1]; LP-BM5 virus + SP aerosol 1 μM, 8 weeks post-infection): 3127 (77) counts per min | deleterious effects of chronic JP-8 jet fuel exposure to the immune system ([2]; Substance P aerosol therapy): reversed and/or prevented | majority of the effects of JP-8 jet fuel exposure on the immune system ([2]; Substance P at both 1 uM and 1 nM doses): could be significantly reversed | effects of JP-8 exposure on all measured immune parameters ([2]; mice exposed to 500, 1000 or 2500 mg aerosolized JP-8, 7 days 1 hour/day, treated with Substance P): invariably reversed the effects on all measured parameters of JP-8 exposure to almost normal levels | BM CD3, cells staining positive [3, 6]: 12% | BM CD4, cells staining positive [3, 6]: 11% | BM CD8, cells staining positive [3, 6]: 1% | BM CD45, cells staining positive [3, 6]: 48% | Spleen CD3, cells staining positive [3, 6]: 42% | Spleen CD4, cells staining positive [3, 6]: 26% | Spleen CD8, cells staining positive [3, 6]: 11% | Spleen CD45, cells staining positive [3, 6]: 23% | Spleen MAC1, cells staining positive [3, 6]: 1% | Thymus CD3, cells staining positive [3, 6]: 10% | Thymus DN, cells staining positive [3, 6]: 7% | Thymus DP, cells staining positive [3, 6]: 84% | Thymus SP4, cells staining positive [3, 6]: 6% | Thymus SP8, cells staining positive [3, 6]: 2% | BM CD3, cells staining positive ([3]; JP-8 dose 250 + SP aerosol): 13% | BM CD4, cells staining positive ([3]; JP-8 dose 250 + SP aerosol): 10% | BM CD8, cells staining positive ([3]; JP-8 dose 250 + SP aerosol): 3% | BM CD45, cells staining positive ([3]; JP-8 dose 250 + SP aerosol): 48% | BM MAC1, cells staining positive ([3]; JP-8 dose 250 + SP aerosol): 10% | LN CD3, cells staining positive ([3]; JP-8 dose 250 + SP aerosol): 85% | LN CD4, cells staining positive ([3]; JP-8 dose 250 + SP aerosol): 48% | LN CD8, cells staining positive ([3]; JP-8 dose 250 + SP aerosol): 12% | LN CD45, cells staining positive ([3]; JP-8 dose 250 + SP aerosol): 13% | LN MAC1, cells staining positive ([3]; JP-8 dose 250 + SP aerosol): 1% | PBL CD3, cells staining positive ([3]; JP-8 dose 250 + SP aerosol): 59% | PBL CD4, cells staining positive ([3]; JP-8 dose 250 + SP aerosol): 15% | PBL CD8, cells staining positive ([3]; JP-8 dose 250 + SP aerosol): 6% | PBL CD45, cells staining positive ([3]; JP-8 dose 250 + SP aerosol): 16% | PBL MAC1, cells staining positive ([3]; JP-8 dose 250 + SP aerosol): 1% | Spleen CD3, cells staining positive ([3]; JP-8 dose 250 + SP aerosol): 62% | Spleen CD4, cells staining positive ([3]; JP-8 dose 250 + SP aerosol): 27% | Spleen CD8, cells staining positive ([3]; JP-8 dose 250 + SP aerosol): 3% | Spleen CD45, cells staining positive ([3]; JP-8 dose 250 + SP aerosol): 21% | Spleen MAC1, cells staining positive ([3]; JP-8 dose 250 + SP aerosol): 1% | Thymus CD3, cells staining positive ([3]; JP-8 dose 250 + SP aerosol): 24% | Thymus DN, cells staining positive ([3]; JP-8 dose 250 + SP aerosol): 5% | Thymus DP, cells staining positive ([3]; JP-8 dose 250 + SP aerosol): 68% | Thymus SP4, cells staining positive ([3]; JP-8 dose 250 + SP aerosol): 22% | Thymus SP8, cells staining positive ([3]; JP-8 dose 250 + SP aerosol): 5% | BM CD3, cells staining positive [3, 7]: 14% | BM CD4, cells staining positive [3, 7]: 9% | BM CD8, cells staining positive [3, 7]: 2% | BM CD45, cells staining positive [3, 7]: 31% | BM MAC1, cells staining positive [3, 7]: 26% | LN CD3, cells staining positive [3, 7]: 86% | LN CD4, cells staining positive [3, 7]: 29% | LN CD8, cells staining positive [3, 7]: 11% | LN CD45, cells staining positive [3, 7]: 22% | LN MAC1, cells staining positive [3, 7]: 0% | PBL CD3, cells staining positive [3, 7]: 61% | PBL CD4, cells staining positive [3, 7]: 23% | PBL CD8, cells staining positive [3, 7]: 10% | PBL CD45, cells staining positive [3, 7]: 22% | PBL MAC1, cells staining positive [3, 7]: 3% | Spleen CD3, cells staining positive [3, 7]: 34% | Spleen CD4, cells staining positive [3, 7]: 18% | Spleen CD8, cells staining positive [3, 7]: 10% | Spleen CD45, cells staining positive [3, 7]: 20% | Spleen MAC1, cells staining positive [3, 7]: 5% | Thymus CD3, cells staining positive [3, 7]: 20% | Thymus DN, cells staining positive [3, 7]: 10% | Thymus DP, cells staining positive [3, 7]: 65% | Thymus SP4, cells staining positive [3, 7]: 16% | Thymus SP8, cells staining positive [3, 7]: 6% | BM CD3, cells staining positive [3, 8]: 13% | BM CD4, cells staining positive [3, 8]: 10% | BM CD8, cells staining positive [3, 8]: 3% | BM CD45, cells staining positive [3, 8]: 43% | BM MAC1, cells staining positive [3, 8]: 16% | LN CD3, cells staining positive [3, 8]: 95% | LN CD4, cells staining positive [3, 8]: 42% | LN CD8, cells staining positive [3, 8]: 25% | LN CD45, cells staining positive [3, 8]: 23% | LN MAC1, cells staining positive [3, 8]: 0% | PBL CD3, cells staining positive [3, 8]: 78% | PBL CD4, cells staining positive [3, 8]: 25% | PBL CD8, cells staining positive [3, 8]: 8% | PBL CD45, cells staining positive [3, 8]: 29% | PBL MAC1, cells staining positive [3, 8]: 2% | Spleen CD3, cells staining positive [3, 8]: 60% | Spleen CD4, cells staining positive [3, 8]: 15% | Spleen CD8, cells staining positive [3, 8]: 5% | Spleen CD45, cells staining positive [3, 8]: 41% | Spleen MAC1, cells staining positive [3, 8]: 1% | Thymus CD3, cells staining positive [3, 8]: 25% | Thymus DN, cells staining positive [3, 8]: 7% | Thymus DP, cells staining positive [3, 8]: 69% | Thymus SP4, cells staining positive [3, 8]: 16% | Thymus SP8, cells staining positive [3, 8]: 7% | BM CD3, cells staining positive ([3]; JP-8 dose 2500 + SP aerosol): 6% | BM CD4, cells staining positive ([3]; JP-8 dose 2500 + SP aerosol): 3% | BM CD8, cells staining positive ([3]; JP-8 dose 2500 + SP aerosol): 6% | BM CD45, cells staining positive ([3]; JP-8 dose 2500 + SP aerosol): 24% | BM MAC1, cells staining positive ([3]; JP-8 dose 2500 + SP aerosol): 34% | Spleen CD3, cells staining positive ([3]; JP-8 dose 2500 + SP aerosol): 38% | Spleen CD4, cells staining positive ([3]; JP-8 dose 2500 + SP aerosol): 26% | Spleen CD8, cells staining positive ([3]; JP-8 dose 2500 + SP aerosol): 14% | Spleen CD45, cells staining positive ([3]; JP-8 dose 2500 + SP aerosol): 31% | Spleen MAC1, cells staining positive ([3]; JP-8 dose 2500 + SP aerosol): 3% | Thymus CD3, cells staining positive ([3]; JP-8 dose 2500 + SP aerosol): 16% | Thymus DN, cells staining positive ([3]; JP-8 dose 2500 + SP aerosol): 19% | Thymus DP, cells staining positive ([3]; JP-8 dose 2500 + SP aerosol): 64% | Thymus SP4, cells staining positive ([3]; JP-8 dose 2500 + SP aerosol): 15% | Thymus SP8, cells staining positive ([3]; JP-8 dose 2500 + SP aerosol): 5% | survival time [4]: enhance survival time

Reference: US5998376A, “Substance P treatment for immunostimulation” (priority 1998, dated 1999)
